Measurements: patent US20130101530A1, “ANTIMICROBIAL PRESERVATIVE COMPOSITIONS FOR PERSONAL CARE PRODUCTS” (GALAXY SURFACTANTS LTD., priority 2011, published 2013)
Like-named read-outs stand apart in the source and are kept apart here.

Experiments:
[1] = 0.1% aqueous solution at 25° C.; water 72 dynes/cm; cited from earlier work
[2] = tested on: Escherichia coli ATCC 10142; assay: Minimum inhibitory concentration; type: cell-based; settings: ATCC10142
[3] = tested on: Pseudomonas aeruginosa Immuno type IV; assay: Minimum inhibitory concentration; type: cell-based
[4] = tested on: all types of microbes (Gram positive, Gram negative bacteria, yeast and mould; the chosen eight organisms); assay: Minimum inhibitory concentration, whole panel; type: cell-based; settings: up to 1.0% concentration; bacteria, yeast and mould
[5] = Reduction in surface tension of water; type: physicochemical
Experimental: The ‘liquid alcohol ether’ as used herein like 2-ethyl hexyl glyceryl ether is also a surfactant where the hydrophobe is provided by octyl group and the hydrophilic portion is the two hydroxyl groups of glycerine moiety and the ether linkage.
A mixture of octanoic acid (114 g, […]), BHT (0.3 g) and monoethanol amine (61 g, […]) is stirred under nitrogen blanket in a pressure vessel at 140° C. for 4 hr and then the temperature is raised to 165° C. for additional one hour. At this stage, acid value is normally found to be around 5 or less. The reaction was then cooled under mild vacuum to 60° C. and the molten mass is converted into off-white flakes (148 g, 95%) by pouring it on a glass plate. (Melting point 62-64° C., acid value 5, IR (KBr): 1640 cm^−1 (carbonyl of amide), 1556 cm^−1, 2919 cm^−1, 3289 cm^−1 (NH of amide) Reduction is surface tension of water: 0.05% solution, 38.5 dyne/cm, 0.1% solution 30.5 dyne/cm.

[6] = tested on: Malassezia furfur MTCC 1374; assay: Minimum inhibitory concentration; type: cell-based; settings: MTCC1374
[7] = tested on: Staphylococcus aureus ATCC 6538S; assay: Minimum inhibitory concentration; type: cell-based; settings: ATCC6538S
[8] = tested on: Propionibacterium acnes MTCC 1951; assay: Minimum inhibitory concentration; type: cell-based; settings: Cutibacterium acnes, MTCC1951
[9] = tested on: Bacillus subtilis ATCC 9372; assay: microbe, parasite or virus in culture; type: cell-based; settings: ATCC9372
[10] = tested on: Candida albicans ATCC 10231; assay: Minimum inhibitory concentration; type: cell-based; settings: ATCC10231
[11] = tested on: Aspergillus niger ATCC 16404; assay: Minimum inhibitory concentration; type: cell-based; settings: ATCC16404, Aspergillus niger

Compound | Surface tension of water [1] [dynes/cm] | MIC ([2]; Escherichia coli ATCC 10142, read-out: MINIMUM INHIBITORY CONCENTRATION) [µg/mL] | MIC ([2]; in Preservative Blend No 2 (10:10:80), Escherichia coli, read-out: Concentration of individual component at MIC of Preservative Blend No 2) [µg/mL] | MIC ([3]; Pseudomonas aeruginosa Immuno type IV, read-out: MINIMUM INHIBITORY CONCENTRATION) [µg/mL] | MIC ([3]; in Preservative Blend No 2 (10:10:80), Pseudomonas aeruginosa, read-out: Concentration of individual component at MIC of Preservative Blend No 2) [µg/mL] | Antimicrobial activity of the ingredient alone [4] | Surface tension of water ([5]; 0.05% level) [dynes/cm] | Surface tension of water ([5]; 0.1% concentration) [dynes/cm] | MIC ([6]; Malassezia furfur MTCC 1374, read-out: MINIMUM INHIBITORY CONCENTRATION) [µg/mL] | MIC ([6]; in Preservative Blend No 2 (10:10:80), Malassezia furfur, read-out: Concentration of individual component at MIC of Preservative Blend No 2) [µg/mL] | MIC ([7]; Staphylococcus aureus ATCC 6538S, read-out: MINIMUM INHIBITORY CONCENTRATION) [µg/mL] | MIC ([7]; in Preservative Blend No 2 (10:10:80), Staphylococcus aureus, read-out: Concentration of individual component at MIC of Preservative Blend No 2) [µg/mL] | MIC ([8]; Propionibacterium acnes MTCC 1951, read-out: MINIMUM INHIBITORY CONCENTRATION) [µg/mL] | MIC ([8]; in Preservative Blend No 2 (10:10:80), Propionibacterium acnes, read-out: Concentration of individual component at MIC of Preservative Blend No 2) [µg/mL] | MIC ([9]; Bacillus subtilis ATCC 9372, read-out: MINIMUM INHIBITORY CONCENTRATION) [µg/mL] | MIC ([9]; in Preservative Blend No 2 (10:10:80), Bacillus subtilis, read-out: Concentration of individual component at MIC of Preservative Blend No 2) [µg/mL] | MIC ([10]; Candida albicans ATCC 10231, read-out: MINIMUM INHIBITORY CONCENTRATION) [µg/mL] | MIC ([10]; in Preservative Blend No 2 (10:10:80), Candida albicans, read-out: Concentration of individual component at MIC of Preservative Blend No 2) [µg/mL] | MIC ([11]; in Preservative Blend No 2 (10:10:80), read-out: Concentration of individual component at MIC of Preservative Blend No 2) [µg/mL] | MIC ([11]; read-out: MINIMUM INHIBITORY CONCENTRATION) [µg/mL]
CCCCC(CC)COCC(O)CO (centres unmarked) [2-ethyl hexyl glyceryl ether, 3-(2-ethylhexyl) oxy 1,2-propanediol] | 32 |  |  |  |  |  |  |  |  |  |  |  |  |  |  |  |  |  |  | 
CCCCCCCC(=O)NCCO [Octanoyl MEA amide, N-(2-hydroxylethyl)caprylic acid amide] |  | > 10000 | 300 | > 10000 | 300 | did not exhibit any antibacterial activity | 38 | 30 | > 10000 | 400 | > 10000 | 300 | > 10000 | 200 | > 10000 | 200 | > 10000 | 200 | 200 | > 10000
